Test results: paper PMC6833013 (Molecules, 2019)

Experiments:
Bacillus subtilis MB964 = assay type: cell-based
HepG2 = assay: cells; assay type: cell-based; details: Homo sapiens, HepG2, 24 h, read-out: IC50 HepG2
MCF-7 = assay: cells; assay type: cell-based; details: Homo sapiens, MCF7, 24 h, read-out: IC50 MCF-7
RCC4-VA = assay: cells; assay type: cell-based; details: Homo sapiens, 24 h, read-out: IC50 RCC4-VA
RCC4-VHL = assay: cells; assay type: cell-based; details: Homo sapiens, 24 h, read-out: IC50 RCC4-VHL
Fa2N4 = assay: cells; assay type: cell-based; details: Homo sapiens, Fa2N-4, 24 h, read-out: IC50 Fa2N4
A549 = assay: cells; assay type: cell-based; details: Homo sapiens, A549, 24 h, read-out: IC50 A549
HT29 = assay: cells; assay type: cell-based; details: Homo sapiens, HT-29, 24 h, read-out: IC50 HT29

SMILES | B. subtilis MB964 inhibition halo (Bacillus subtilis MB964) | IC50 (HepG2) [µg/mL] | IC50 (MCF-7) [µg/mL] | IC50 (RCC4-VA) [µg/mL] | IC50 (RCC4-VHL) [µg/mL] | IC50 (Fa2N4) [µg/mL] | IC50 (A549) [µg/mL] | IC50 (HT29) [µg/mL] | cytotoxic activity in all the cell lines tested (human cell lines)
CCC(=O)OC1CC2OC3C=C(C)CCC3(C)C1(C)C2(O)CO [Compound 16, (4R,12S)-12-Hydroxy-12-hydroxymethyltrichothec-9-en-4-yl propionate] | no halo | > 20 | > 20 | > 20 | > 20 | > 20 | > 20 | > 20 | lost all their activity
CC(=O)OC1CC2OC3C=C(C)CCC3(C)C1(C)C2(O)CO [Compound 3, (4R,12S)-12-Hydroxy-12-(hydroxymethyl)trichothec-9-en-4-yl acetate] | no halo | > 20 | > 20 | > 20 | > 20 | > 20 | > 20 | > 20 | lost all their activity
